The source made the active and inactive calls.
Columns and labels:
Prothrombin = Prothrombin (Bos taurus, UniProt P00735); experiment: thrombin protease inhibitors – biochemical, fluorescence polarization, uHTS hits, dose response (AID 602369); type: functional
[1] = target: 26S proteasome non-ATPase regulatory subunit 14 (Homo sapiens, UniProt O00487); experiment: inhibition of proteasome subunit RPN11 – biochemical, fluorescence polarization, uHTS hits, confirmation (AID 602368); type: functional
[2] = target: 72 kDa type IV collagenase (Homo sapiens, UniProt P08253); experiment: Dose Response validation of uHTS RPN11 inhibitor hits using a MMP-2 Fluorescence assay.; type: functional
[3] = target: Glucose-6-phosphate 1-dehydrogenase (Homo sapiens, UniProt P11413); experiment: inhibition of Homo sapiens G6PD, dose series – biochemical, fluorescence, selectivity assay for P. falciparum G6PD inhibitor project, dose response (AID 504792); type: functional
[4] = target: T1, Short transient receptor potential channel 4 (Mus musculus, UniProt Q9QUQ5); experiment: calcium entry via TRPC4 opening agents – cell-based, HEK293 TRPC4/mu-opioid, Fluo-4 calcium, dose response (AID 434937); type: functional
T1 sequence (Q9QUQ5 whole entry): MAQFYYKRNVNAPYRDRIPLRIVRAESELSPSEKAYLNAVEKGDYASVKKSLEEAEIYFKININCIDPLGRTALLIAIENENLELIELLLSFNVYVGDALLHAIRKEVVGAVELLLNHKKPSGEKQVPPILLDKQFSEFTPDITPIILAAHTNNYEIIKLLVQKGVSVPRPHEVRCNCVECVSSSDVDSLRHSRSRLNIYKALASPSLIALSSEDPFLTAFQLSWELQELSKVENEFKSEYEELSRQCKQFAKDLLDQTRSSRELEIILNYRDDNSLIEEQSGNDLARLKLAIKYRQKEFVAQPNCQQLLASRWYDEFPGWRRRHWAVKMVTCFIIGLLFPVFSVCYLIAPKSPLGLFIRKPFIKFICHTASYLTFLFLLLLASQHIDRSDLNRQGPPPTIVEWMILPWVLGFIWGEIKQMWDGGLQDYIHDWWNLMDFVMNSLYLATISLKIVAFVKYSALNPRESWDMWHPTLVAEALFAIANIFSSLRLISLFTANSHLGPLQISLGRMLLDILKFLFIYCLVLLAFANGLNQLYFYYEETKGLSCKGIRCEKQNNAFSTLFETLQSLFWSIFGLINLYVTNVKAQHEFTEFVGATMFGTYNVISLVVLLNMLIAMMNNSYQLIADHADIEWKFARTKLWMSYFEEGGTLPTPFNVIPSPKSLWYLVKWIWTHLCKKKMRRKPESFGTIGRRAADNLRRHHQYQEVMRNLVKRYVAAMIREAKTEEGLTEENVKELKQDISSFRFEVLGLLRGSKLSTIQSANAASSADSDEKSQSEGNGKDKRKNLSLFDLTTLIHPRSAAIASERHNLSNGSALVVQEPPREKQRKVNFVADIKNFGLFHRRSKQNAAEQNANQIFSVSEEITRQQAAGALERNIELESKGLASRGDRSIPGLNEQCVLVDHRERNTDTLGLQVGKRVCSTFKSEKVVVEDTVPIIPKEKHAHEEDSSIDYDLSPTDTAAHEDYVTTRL

CAAX prenyl protease 2 [5] = target: T2, CAAX prenyl protease 2 (Saccharomyces cerevisiae S288c, UniProt Q03530); type: biochemical
T2 sequence (Q03530 whole entry): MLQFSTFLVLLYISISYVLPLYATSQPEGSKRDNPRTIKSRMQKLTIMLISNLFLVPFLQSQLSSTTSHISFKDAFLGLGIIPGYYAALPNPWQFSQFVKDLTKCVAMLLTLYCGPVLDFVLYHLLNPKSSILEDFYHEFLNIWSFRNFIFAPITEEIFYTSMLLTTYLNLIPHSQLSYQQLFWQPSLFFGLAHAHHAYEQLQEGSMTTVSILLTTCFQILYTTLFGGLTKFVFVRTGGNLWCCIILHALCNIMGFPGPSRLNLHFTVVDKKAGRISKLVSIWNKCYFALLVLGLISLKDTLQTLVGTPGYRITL

Trypsin = Trypsin (Sus scrofa, UniProt P00761); experiment: trypsin protease activity blockade – biochemical, quenched peptide fluorescence, cherry-pick, selectivity assay for Rce1 protease inhibitor project, dose response (AID 488789)
CAAX prenyl protease 2 [6] = target: T3, CAAX prenyl protease 2 (Homo sapiens, UniProt Q9Y256); experiment: inhibition of Ras-converting CAAX protease Rce1 – biochemical, yeast membranes, quenched-peptide fluorescence, cherry-pick, dose response (AID 588849)
T3 sequence (Q9Y256 whole entry): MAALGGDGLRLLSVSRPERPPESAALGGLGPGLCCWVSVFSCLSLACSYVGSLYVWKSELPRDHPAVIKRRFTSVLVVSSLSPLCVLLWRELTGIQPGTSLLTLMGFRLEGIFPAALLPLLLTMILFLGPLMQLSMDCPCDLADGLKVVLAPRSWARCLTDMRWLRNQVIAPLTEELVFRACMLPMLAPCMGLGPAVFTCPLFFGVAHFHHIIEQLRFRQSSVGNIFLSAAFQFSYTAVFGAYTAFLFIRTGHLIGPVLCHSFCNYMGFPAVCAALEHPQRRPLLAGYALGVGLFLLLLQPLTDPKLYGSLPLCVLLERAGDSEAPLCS

[7] = Luminescence Cell-Based Dose Response HTS to Identify Activators of Luciferase Translation or Activity in H4 […] Cells. [Related pubchem assays: 1829 (Project Summary), 1814 (Primary HTS)]; type: functional
HeLa = experiment: ATP-based viability loss in HeLa cells – cell-based, CellTiter-Glo luminescence, cherry-pick samples, cytotoxicity control for MITF activator project, dose response (AID 540259); type: functional; settings: Homo sapiens
H4 = experiment: Luminescence Cell-Based Dose Response HTS to Identify Activators of 5'UTR Stem-Loop Driven Prion Protein mRNA Translation in H4 Neuroglioblastoma Cells. [Related pubchem assays: 1829 (Project Summary), 1814 (Primary HTS)]; type: functional; settings: Homo sapiens
Caspase-3 = target: T4, Caspase-3 (Homo sapiens, UniProt P42574); experiment: SAR Analysis of small molecule inhibitors of Sentrin-specific proteases (SENPs) using a Caspase-3 Selectivity assay. [Related pubchem assays (depositor defined):AID2540, AID2599, AID434973, AID489001]; type: functional
T4 sequence (P42574 whole entry): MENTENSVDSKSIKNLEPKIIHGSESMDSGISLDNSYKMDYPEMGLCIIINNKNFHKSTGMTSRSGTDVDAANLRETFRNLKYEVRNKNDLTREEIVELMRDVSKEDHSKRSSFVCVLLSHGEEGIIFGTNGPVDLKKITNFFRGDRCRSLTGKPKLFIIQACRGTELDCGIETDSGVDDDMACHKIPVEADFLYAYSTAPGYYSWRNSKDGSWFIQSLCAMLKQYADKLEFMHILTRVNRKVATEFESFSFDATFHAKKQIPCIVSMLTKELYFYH

[8] = target: T5, Sentrin-specific protease 7 (Homo sapiens, UniProt Q9BQF6); experiment: inhibition of human SENP7 cleavage activity – biochemical, luminescence, SAR follow-up (AID 504497); type: functional
T5 sequence (Q9BQF6 whole entry): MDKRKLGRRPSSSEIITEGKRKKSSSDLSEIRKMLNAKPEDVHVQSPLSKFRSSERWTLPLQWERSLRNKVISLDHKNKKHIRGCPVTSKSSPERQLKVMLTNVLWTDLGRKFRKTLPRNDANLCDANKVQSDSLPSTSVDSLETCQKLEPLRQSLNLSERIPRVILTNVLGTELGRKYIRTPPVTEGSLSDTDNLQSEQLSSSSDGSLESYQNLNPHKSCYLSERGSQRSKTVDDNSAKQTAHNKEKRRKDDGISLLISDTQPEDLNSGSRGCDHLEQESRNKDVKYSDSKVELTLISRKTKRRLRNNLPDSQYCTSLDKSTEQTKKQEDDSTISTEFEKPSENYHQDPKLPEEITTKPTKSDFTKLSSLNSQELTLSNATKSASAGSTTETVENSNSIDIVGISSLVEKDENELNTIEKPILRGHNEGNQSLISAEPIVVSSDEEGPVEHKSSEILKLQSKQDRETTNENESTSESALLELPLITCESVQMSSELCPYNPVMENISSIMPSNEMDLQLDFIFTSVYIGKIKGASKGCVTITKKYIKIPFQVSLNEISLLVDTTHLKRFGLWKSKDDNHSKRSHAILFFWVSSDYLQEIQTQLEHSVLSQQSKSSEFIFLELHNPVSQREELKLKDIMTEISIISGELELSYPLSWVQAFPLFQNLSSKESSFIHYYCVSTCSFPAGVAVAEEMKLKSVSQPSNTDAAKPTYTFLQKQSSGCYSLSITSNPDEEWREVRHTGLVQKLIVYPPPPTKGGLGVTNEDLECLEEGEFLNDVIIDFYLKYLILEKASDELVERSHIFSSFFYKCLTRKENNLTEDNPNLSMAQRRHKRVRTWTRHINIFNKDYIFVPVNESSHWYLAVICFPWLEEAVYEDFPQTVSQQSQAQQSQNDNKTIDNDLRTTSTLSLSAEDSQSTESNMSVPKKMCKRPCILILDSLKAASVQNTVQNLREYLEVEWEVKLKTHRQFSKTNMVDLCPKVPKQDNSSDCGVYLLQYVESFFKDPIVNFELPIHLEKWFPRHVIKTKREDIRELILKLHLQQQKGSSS

[9] = target: T6, Sentrin-specific protease 8 (Homo sapiens, UniProt Q96LD8); experiment: inhibition of human SENP8 cleavage activity – biochemical, luminescence, SAR follow-up (AID 504501); type: functional
T6 sequence (Q96LD8 whole entry): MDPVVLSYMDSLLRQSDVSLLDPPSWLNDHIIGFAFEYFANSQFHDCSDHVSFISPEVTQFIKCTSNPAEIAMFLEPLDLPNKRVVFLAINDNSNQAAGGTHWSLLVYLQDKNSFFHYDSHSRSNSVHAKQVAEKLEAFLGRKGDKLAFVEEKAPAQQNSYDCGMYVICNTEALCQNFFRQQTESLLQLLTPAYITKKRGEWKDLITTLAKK

[10] = target: T7, Sentrin-specific protease 6 (Homo sapiens, UniProt Q9GZR1); experiment: SAR Analysis of small molecule inhibitors of Sentrin-specific protease 6 (SENP6) using a Luminescent assay. [Related pubchem assays (depositor defined):AID2582, AID2599]; type: functional
T7 sequence (Q9GZR1 whole entry): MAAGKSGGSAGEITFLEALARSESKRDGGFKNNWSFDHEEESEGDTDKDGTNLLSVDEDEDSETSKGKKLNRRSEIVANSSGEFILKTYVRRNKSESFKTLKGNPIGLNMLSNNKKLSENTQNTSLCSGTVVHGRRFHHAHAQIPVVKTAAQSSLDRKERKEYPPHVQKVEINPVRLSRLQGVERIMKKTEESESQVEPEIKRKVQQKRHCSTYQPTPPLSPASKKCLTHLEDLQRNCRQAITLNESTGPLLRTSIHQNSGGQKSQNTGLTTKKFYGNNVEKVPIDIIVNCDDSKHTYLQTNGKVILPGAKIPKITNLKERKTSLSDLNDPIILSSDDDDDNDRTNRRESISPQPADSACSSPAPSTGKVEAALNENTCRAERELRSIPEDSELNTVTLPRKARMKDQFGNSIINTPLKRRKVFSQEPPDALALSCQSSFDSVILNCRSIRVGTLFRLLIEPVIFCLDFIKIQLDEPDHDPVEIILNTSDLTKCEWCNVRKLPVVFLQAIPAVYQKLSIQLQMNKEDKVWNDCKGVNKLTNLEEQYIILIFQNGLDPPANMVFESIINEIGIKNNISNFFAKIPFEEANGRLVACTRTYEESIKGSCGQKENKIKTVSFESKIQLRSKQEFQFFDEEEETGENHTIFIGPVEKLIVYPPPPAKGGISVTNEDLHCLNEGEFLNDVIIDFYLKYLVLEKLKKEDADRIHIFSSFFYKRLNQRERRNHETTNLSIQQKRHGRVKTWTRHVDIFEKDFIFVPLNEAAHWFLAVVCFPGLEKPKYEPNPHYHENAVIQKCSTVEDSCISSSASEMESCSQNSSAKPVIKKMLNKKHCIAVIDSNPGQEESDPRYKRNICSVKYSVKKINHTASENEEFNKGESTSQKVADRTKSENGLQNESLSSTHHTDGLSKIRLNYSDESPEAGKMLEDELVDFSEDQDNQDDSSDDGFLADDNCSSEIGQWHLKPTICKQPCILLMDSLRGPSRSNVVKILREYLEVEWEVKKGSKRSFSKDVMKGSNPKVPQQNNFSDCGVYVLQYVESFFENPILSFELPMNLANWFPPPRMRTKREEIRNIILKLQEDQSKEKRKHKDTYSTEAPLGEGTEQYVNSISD

Sequence of Glucose-6-phosphate 1-dehydrogenase (P11413 whole entry): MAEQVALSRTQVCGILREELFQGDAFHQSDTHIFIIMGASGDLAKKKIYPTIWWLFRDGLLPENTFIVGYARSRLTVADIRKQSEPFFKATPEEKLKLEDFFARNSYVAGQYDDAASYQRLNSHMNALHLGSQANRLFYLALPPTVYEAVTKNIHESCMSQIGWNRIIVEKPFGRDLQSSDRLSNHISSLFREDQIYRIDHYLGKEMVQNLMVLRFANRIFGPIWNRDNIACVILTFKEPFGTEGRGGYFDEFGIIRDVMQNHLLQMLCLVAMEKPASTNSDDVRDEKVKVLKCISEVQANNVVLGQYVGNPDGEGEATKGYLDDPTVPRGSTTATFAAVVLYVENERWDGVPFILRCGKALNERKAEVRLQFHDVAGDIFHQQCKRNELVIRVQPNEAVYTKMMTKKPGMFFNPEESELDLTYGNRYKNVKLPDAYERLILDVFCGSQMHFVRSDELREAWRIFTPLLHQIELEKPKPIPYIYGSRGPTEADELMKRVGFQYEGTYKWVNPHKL
Sequence of 26S proteasome non-ATPase regulatory subunit 14 (O00487 whole entry): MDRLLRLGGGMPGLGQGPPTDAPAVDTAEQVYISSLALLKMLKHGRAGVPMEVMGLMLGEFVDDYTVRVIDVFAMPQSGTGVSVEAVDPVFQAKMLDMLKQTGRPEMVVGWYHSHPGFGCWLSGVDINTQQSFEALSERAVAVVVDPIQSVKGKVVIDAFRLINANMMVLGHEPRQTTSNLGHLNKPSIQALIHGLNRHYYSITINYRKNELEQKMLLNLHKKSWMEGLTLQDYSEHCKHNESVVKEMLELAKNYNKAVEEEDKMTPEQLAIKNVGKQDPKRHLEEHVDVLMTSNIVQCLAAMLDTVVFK
Sequence of Trypsin (P00761 whole entry): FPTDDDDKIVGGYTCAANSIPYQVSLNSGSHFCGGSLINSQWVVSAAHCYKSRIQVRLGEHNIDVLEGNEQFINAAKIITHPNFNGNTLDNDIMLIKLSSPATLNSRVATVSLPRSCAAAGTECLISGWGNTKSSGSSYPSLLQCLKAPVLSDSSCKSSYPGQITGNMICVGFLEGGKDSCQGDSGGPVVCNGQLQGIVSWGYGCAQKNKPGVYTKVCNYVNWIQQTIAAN
Sequence of 72 kDa type IV collagenase (P08253 whole entry): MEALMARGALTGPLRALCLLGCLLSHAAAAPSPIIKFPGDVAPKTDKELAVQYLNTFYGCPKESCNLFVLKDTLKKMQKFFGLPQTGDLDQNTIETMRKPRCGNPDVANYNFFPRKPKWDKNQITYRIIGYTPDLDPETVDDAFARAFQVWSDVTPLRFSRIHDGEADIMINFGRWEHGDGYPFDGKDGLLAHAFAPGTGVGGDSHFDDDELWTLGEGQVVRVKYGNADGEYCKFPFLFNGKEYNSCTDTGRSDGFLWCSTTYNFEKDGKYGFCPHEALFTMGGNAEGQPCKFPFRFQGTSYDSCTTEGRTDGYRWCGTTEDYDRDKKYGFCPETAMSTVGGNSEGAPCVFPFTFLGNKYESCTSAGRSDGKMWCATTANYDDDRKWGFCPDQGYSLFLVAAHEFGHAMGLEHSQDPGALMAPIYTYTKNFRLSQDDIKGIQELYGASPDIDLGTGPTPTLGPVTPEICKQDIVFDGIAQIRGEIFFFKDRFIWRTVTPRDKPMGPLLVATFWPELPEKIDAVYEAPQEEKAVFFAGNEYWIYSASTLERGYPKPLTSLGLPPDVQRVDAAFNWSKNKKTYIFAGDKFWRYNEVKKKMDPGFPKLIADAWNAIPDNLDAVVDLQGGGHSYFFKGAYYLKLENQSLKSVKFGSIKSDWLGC

COc1cc(/C=C/c2nc(O)c3ccccc3n2)cc(Br)c1O
IC50 (Prothrombin): 88 µM (active) | IC50 [1]: 0.914 µM (active) | IC50 [2]: > 100 µM (inactive)

Cc1cccc(C(=O)Nc2nnc(S(=O)(=O)N3CCCCCC3)s2)c1
IC50 [3]: > 80 µM (inactive)

CCc1cc(OCCN(C)C)ccc1Cl
EC50 [4]: 0.267 µM (active)

CC(C)OCCCNC(=O)c1c(N)n(CC2CCCO2)c2nc3ccccc3nc12 (configuration not stated)
AC50 (CAAX prenyl protease 2 [5]): 15 µM (active) | AC50 (Trypsin): 5.99 µM (active) | AC50 (CAAX prenyl protease 2 [6]): 9.35 µM (active)

c1ccc(CSc2ccc(-c3ccc4c(c3)OCO4)nn2)cc1
EC50 [7]: 4.69 µM (active) | AC50 (HeLa): 112 µM (active) | EC50 (H4): > 120 µM (not active)

Cc1cccn2c(CNCCc3ccccn3)c(C(=O)N3CCOCC3)nc12
EC50 [4]: 1.68 µM (active)

Oc1ccc(-c2nccc(-c3ccccn3)n2)cc1
AC50 (HeLa): 55.2 µM (active)

C=CCOc1c(Cl)cc(CNc2ccc(N(C)C)cc2)cc1OC
IC50 [3]: > 80 µM (inactive)

CCn1c(CN2CCN(Cc3ccc(C)cc3)C(CCO)C2)nc2ccccc21 (configuration not stated)
EC50 [4]: 0.668 µM (active)

O=C(/C=C/c1cn(-c2ccccc2)nc1-c1cccs1)NCCN1CCOCC1
AC50 (CAAX prenyl protease 2 [5]): 10.8 µM (active) | AC50 (CAAX prenyl protease 2 [6]): > 100 µM (inactive)

COc1ccc(N/N=C/c2c[nH]c3ccccc23)cc1
IC50 (Caspase-3): 19.9 µM (active) | IC50 [8]: 11.4 µM (active) | IC50 [9]: 29.5 µM (active) | IC50 [10]: 25.8 µM (active)

COc1cccc(-c2noc(/C=C/c3ccccc3Cl)n2)c1
IC50 (Caspase-3): 20 µM (active) | IC50 [8]: 5.2 µM (active) | IC50 [9]: 18 µM (active) | IC50 [10]: 14 µM (active)

CC(=O)c1ccc(N2Cc3ccccc3/C2=N\C(=O)c2cccs2)cc1
AC50 (HeLa): 76.6 µM (active)

CCn1cc(CN2CCCC(C(=O)Nc3ccc(-c4nc5ccccc5[nH]4)cc3)C2)c(C)n1 (configuration not stated)
EC50 [4]: 0.267 µM (active)

— ChEMBL document CHEMBL1201862, “PubChem BioAssay data set” (2004)
